Values quoted from earlier work, collected in article PMC9363195, “Preclinical Pharmacokinetics, Biodistribution, and Acute Toxicity Evaluation of Caerin 1.9 Peptide in Sprague Dawley Rats” (Evidence-based Complementary and Alternative Medicine : eCAM, 2022).

Tested on: TC-1 cells
Settings: cited from earlier work
Text: Caerin 1.1 and Caerin 1.9 are stable.

Caerin 1.1
prevention of development of TC-1 cells after heating (heated at 100°C for 5 minutes): equally effective
activity after incubation (room temperature, 7 days, low pH environment (pH5.5-7)): remained active
bioactivity after incubation in temperature-sensitive gel (temperature-sensitive gel, room temperature, 30 days): maintained a similar degree of bioactivity
